Values belong to the compound of their own block, whether it stands above or below them.
Columns and labels:
[1] = log P by HPLC on a reversed-phase column (C18), EEC Directive 79/831 Annex V.A8; type: physicochemical; conditions: for chromatographic logP: reversed-phase C18 HPLC column, printed after the preparation step, method not restated
Description: In table 1, the log P values were determined in accordance with EEC Directive 79/831 Annex V.A8 by HPLC (High Performance Liquid Chromatography) on a reversed-phase column (C18), using the method described below:
Temperature: 40° C.; Mobile phases: 0.1% aqueous formic acid and acetonitrile; linear gradient from 10% acetonitrile to 90% acetonitrile.
Calibration was carried out using unbranched alkan-2-ones (comprising 3 to 16 carbon atoms) with known log P values (determination of the log P values by the retention times using linear interpolation between two successive alkanones). lambda-max-values were determined using UV-spectra from 200 nm to 400 nm and the peak values of the chromatographic signals.

Puccinia triticina = experiment: in vivo preventive Puccinia triticina test (wheat); conditions: 8 days after inoculation
Excerpt: (§1) A synergistic effect of fungicides is always present when the fungicidal activity of the active compound combinations exceeds the total of the activities of the active compounds when applied individually. The expected activity for a given combination of two active compounds can be calculated as follows (cf. Colby, S. R., “Calculating Synergistic and Antagonistic Responses of Herbicide Combinations”, Weeds 1967, 15, 20-22): • If • X is the efficacy when active compound A is applied at an application rate of m ppm (or g/ha), • Y is the efficacy when active compound B is applied at an application rate of n ppm (or g/ha), • E is the efficacy when the active compounds A and B are applied at application rates of m and n ppm (or g/ha), respectively, and • then
(§2) The degree of efficacy, expressed in % is denoted. 0% means an efficacy which corresponds to that of the control while an efficacy of 100% means that no disease is observed.
(§3) Solvent: 49 parts by weight of N,N-dimethylacetamide
(§4) Emulsifier: 1 part by weight of alkylaryl polyglycol ether
(§5) To produce a suitable preparation of active compound, 1 part by weight of active compound or active compound combination is mixed with the stated amounts of solvent and emulsifier, and the concentrate is diluted with water to the desired concentration.
(§6) To test for preventive activity, young plants are sprayed with the preparation of active compound or active compound combination at the stated rate of application.
(§7) After the spray coating has been dried, the plants are sprayed with a spore suspension of Puccinia triticina. The plants remain for 48 hours in an incubation cabinet at approximately 20° C. and a relative atmospheric humidity of approximately 100%.
The plants are placed in the greenhouse at a temperature of approximately 20° C. and a relative atmospheric humidity of approximately 80%.
(§8) The test is evaluated 8 days after the inoculation. 0% means an efficacy which corresponds to that of the untreated control, while an efficacy of 100% means that no disease is observed.

Septoria tritici [2] = experiment: in vivo preventive Septoria tritici test (wheat); conditions: 21 days after inoculation
Excerpt: as §1, §2, §3, §4
To produce a suitable preparation of active compound, 1 part by weight of active compound or active compound combination is mixed with the stated amounts of solvent and emulsifier, and the concentrate is diluted with water to the desired concentration. […]
The test is evaluated 21 days after the inoculation. […]

Pyrenophora teres = experiment: in vivo preventive Pyrenophora teres test (barley); conditions: 8 days after inoculation
Excerpt: as §1, §2, §3, §4, §5, §6
as §7, with “Pyrenophora teres.” for “Puccinia triticina.”, “100%. The plants are placed in the greenhouse at a temperature of approximately 20° C. and a relative atmospheric humidity of approximately 80%.” for “100%.”
as §8

[3] = test system: Blumeria graminis f.sp. hordei; experiment: in vivo preventive Blumeria test (barley); conditions: 7 days after inoculation
Excerpt: as §1, §2, §3, §4, §5
To test for preventive activity, young plants are sprayed with the preparation of active compound or active compound combination at the stated rate of application. After the spray coating has been dried, the plants are dusted with spores of Blumeria graminis f.sp. hordei.
The plants are placed in the greenhouse at a temperature of approximately 18° C. and a relative atmospheric humidity of approximately 80% to promote the development of mildew pustules.
The test is evaluated 7 days after the inoculation. 0% means an efficacy which corresponds to that of the untreated control, while an efficacy of 100% means that no disease is observed.

Septoria tritici [4] = experiment: in vitro-test Septoria tritici (microtiter plate, growth by extinction at 620 nm); type: cell-based
Excerpt: as §1
Wells of 96-well microtiter plates are filled with 10 μl of a solution of the test compounds or compound combinations in methanol together with the emulsifier alkylaryl polyglycol ether. Thereafter, the solvent is evaporated in a hood. At the next step, into each well 100 μl of liquid potato dextrose medium is given, that has been amended with an appropriate concentration of spores or mycelium suspension of the test fungus.
The resulting concentrations of the test compounds or compound combinations in the microtiter wells are such as 50, 10, 2 and 0.4 ppm. The resulting concentration of the emulsifier in all wells is constantly 300 ppm. With the aid of a photometer the extinction in all wells is measured at the wavelength of 620 nm.
The microtiter plates are then transferred for 3-5 days onto a shaker at 20° C. and 85% relative humidity.
(§9) At the end of the incubation time the growth of the test organisms is measured again photometrically at the wavelength of 620 nm. The difference between the two extinctions values (taken before and after incubation) is proportional to the growth of the test organism. 0% efficacy means, the difference between the two extinction values is equal or even higher than of the untreated control, 100% efficacy means, no growth of the test organism is detected

Leptosphaeria nodorum = experiment: in vitro-test Leptosphaeria nodorum (microtiter plate, growth by extinction at 620 nm); type: cell-based; conditions: 2.5 ppm a.i., 3-5 days incubation
Excerpt: A synergistic effect of fungicides is always present when the fungicidal activity of the active compound combinations exceeds the total of the activities of the active compounds when applied individually. The expected activity for a given combination of two active compounds can be calculated as follows (cf. Colby, S. R., “Calculating Synergistic and Antagonistic Responses of Herbicide Combinations”, Weeds 1967, 15, 20-22): • If • X is the efficacy when active compound A is applied at an application rate of m ppm (or g/ha), • Y is the efficacy when active compound B is applied at an application rate of n ppm (or g/ha), • E is the efficacy when the active compounds A and B are applied at application rates of m and n ppm (or g/ha), respectively, and • then […]
The resulting concentrations of the test compounds or compound combinations in the microtiter wells are such as 50, 10, 2 and 0.4 ppm. […] With the aid of a photometer the extinction in all wells is measured at the wavelength of 620 nm. […]
as §9, with “The difference between the two extinctions values (taken before and after incubation) is proportional to the growth of the test organism.” left out

[5] = Table B1, 30 ppm a.i., wheat, preventive
[6] = 0.1 ppm a.i., 3-5 days incubation

- chromatographic logP [1]: 1.26
Compound: Cc1ccc(S(=O)(=O)n2cc(F)c(=N)n(C)c2=O)cc1 [(B1), 5-fluoro-4-imino-3-methyl-1-[(4-methylphenyl)sulfonyl]-3,4-dihydropyrimidin-2(1H)-one]
- Efficacy in % found (Puccinia triticina; [5]): 0%
- Efficacy in % found (Septoria tritici [2]; 30 ppm a.i.): 0%

- logP [1]: 4.36
Compound: N-cyclopropyl-3-(difluoromethyl)-5-fluoro-N-(2-isopropylbenzyl)-1-methyl-1H-pyrazole-4-carbothio-amide [Compound A20]

More lines, now with the values behind:

Compound: Cc1ccc(S(=O)(=O)n2cc(F)c(N)nc2=O)cc1 [5-fluoro-4-imino-1-(p-tolylsulfonyl)pyrimidin-2-one]
- chromatographic logP [1]: 1.45

Compound: CC(C)C(O)(Cn1cncn1)c1ccc(Oc2ccc(Cl)cc2)cc1C(F)(F)F (centres unmarked) [(B2), 2-[4-(4-chlorophenoxy)-2-(trifluoromethyl)phenyl]-3-methyl-1-(1H-1,2,4-triazol-1-yl)butan-2-ol]
- Efficacy in % found (Pyrenophora teres; 50 ppm a.i.): 22%
- Efficacy in % found (Pyrenophora teres; 60 ppm a.i.): 44%
- Efficacy in % found (Pyrenophora teres; 100 ppm a.i.): 56%
- Efficacy in % found (Puccinia triticina; Table B2, 30 ppm a.i.): 0%
- Efficacy in % found (Puccinia triticina; Table B2, 50 ppm a.i.): 10%
- Efficacy in % found (Puccinia triticina; Table B2, 100 ppm a.i.): 30%
- Efficacy in % found (Puccinia triticina; Table B2, 200 ppm a.i.): 40%
- Efficacy in % found ([3]; 30 ppm a.i.): 0%
- Efficacy in % found ([3]; 50 ppm a.i.): 30%
- Efficacy in % found ([3]; 60 ppm a.i.): 60%
- Efficacy in % found ([3]; 100 ppm a.i.): 70%
- Efficacy in % found (Septoria tritici [4]; [6]): 0%
- Efficacy in % found (Septoria tritici [4]; 0.3 ppm a.i.): 6%
- Efficacy in % found (Septoria tritici [4]; 0.6 ppm a.i.): 0%
- Efficacy in % found (Leptosphaeria nodorum): 1%

Compound: CC(C)c1ccc(Cl)cc1CN(C(=O)c1c(C(F)F)nn(C)c1F)C1CC1 [Compound A5, N-(5-chloro-2-isopropylbenzyl)-N-cyclopropyl-3-(difluoromethyl)-5-fluoro-1-methyl-1H-pyrazole-4-carboxamide]
- Efficacy in % found (Pyrenophora teres; 5 ppm a.i.): 44%
- Efficacy in % found (Pyrenophora teres; 10 ppm a.i., barley, preventive): 67%
- Efficacy in % found (Puccinia triticina; [5]): 75%
- Efficacy in % found (Puccinia triticina; Table B2, 5 ppm a.i.): 30%
- Efficacy in % found (Puccinia triticina; Table B2, 10 ppm a.i.): 40%
- Efficacy in % found (Puccinia triticina; Table B2, 20 ppm a.i., wheat, preventive): 70%
- Efficacy in % found ([3]; 5 ppm a.i.): 0%
- Efficacy in % found ([3]; 10 ppm a.i.): 20%
- Efficacy in % found ([3]; 20 ppm a.i., barley, preventive): 40%
- Efficacy in % found (Septoria tritici [2]; 10 ppm a.i.): 29%
- Efficacy in % found (Septoria tritici [4]; [6]): 65%
- Efficacy in % found (Leptosphaeria nodorum): 36%

Reference: patent US20190159452A1, “ACTIVE COMPOUND COMBINATIONS COMPRISING A (THIO)CARBOXAMIDE DERIVATIVE AND A FUNGICIDAL COMPOUND” (BAYER CROPSCIENCE AKTIENGESELLSCHAFT, priority 2015, published 2019)
